Key:
Assay in all cases: relative viability (nuclei count vs DMSO), 5 days (fraction); higher = more cells survive
[1] = compound: C[C@@H](Oc1cc(-c2cnn(C3CCNCC3)c2)cnc1N)c1c(Cl)ccc(F)c1Cl [Crizotinib] + COc1cccc2cc(-c3nc([C@H]4CC[C@H](C(=O)O)CC4)n4ncnc(N)c34)[nH]c12 [OSI-027] (partner 0.5 µM)
How it was run: (§1)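 Lung cancer cell lines were seeded in 1536-well plates and dosed by pin tool the next day, with either a single drug or a fixed anchor-drug dose combined with five library-drug doses (not always all listed) spaced in √10 steps. Five days later, one step fixed the cells and stained their nuclei (final 0.05% Triton X-100, 1% formaldehyde, 1 ug/ml Hoechst), and nuclei were counted on 4× images. Relative viability is the nuclei count in treated wells divided by the count in vehicle wells, and each value is the median of duplicate plates.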

[2] = compound: O=C(c1cc(Cc2n[nH]c(=O)c3ccccc23)ccc1F)N1CCN(C(=O)C2CC2)CC1 [Olaparib] + Cc1nc(Nc2ncc(C(=O)Nc3c(C)cccc3Cl)s2)cc(N2CCN(CCO)CC2)n1 [Dasatinib] (partner 0.075 µM)
How it was run: as §1

[3] = compound: O=C(c1cc(Cc2n[nH]c(=O)c3ccccc23)ccc1F)N1CCN(C(=O)C2CC2)CC1 [Olaparib] + CS(=O)(=O)CCNCc1ccc(-c2ccc3ncnc(Nc4ccc(OCc5cccc(F)c5)c(Cl)c4)c3c2)o1 [Lapatinib] (partner 2 µM)
How it was run: as §1

[4] = compound: O=C(c1cc(Cc2n[nH]c(=O)c3ccccc23)ccc1F)N1CCN(C(=O)C2CC2)CC1 [Olaparib] + CC1(C)CCC(c2ccc(Cl)cc2)=C(CN2CCN(c3ccc(C(=O)NS(=O)(=O)c4ccc(N[C@H](CCN5CCOCC5)CSc5ccccc5)c(S(=O)(=O)C(F)(F)F)c4)cc3)CC2)C1 [Navitoclax] (partner 0.5 µM)
How it was run: as §1

Cell Line | relative viability ([1]; first compound 0.01 µM) | relative viability ([1]; first compound 0.03162 µM) | relative viability ([1]; first compound 0.1 µM) | relative viability ([1]; first compound 0.3162 µM) | relative viability ([1]; first compound 1 µM) | relative viability ([2]; first compound 0.08 µM) | relative viability ([2]; first compound 0.253 µM) | relative viability ([2]; first compound 2.53 µM) | relative viability ([2]; first compound 8 µM) | relative viability ([3]; first compound 0.08 µM) | relative viability ([3]; first compound 0.253 µM) | relative viability ([3]; first compound 2.53 µM) | relative viability ([3]; first compound 8 µM) | relative viability ([4]; first compound 0.08 µM) | relative viability ([4]; first compound 0.253 µM) | relative viability ([4]; first compound 2.53 µM) | relative viability ([4]; first compound 8 µM)
NCI-H2009 | 0.704 | 0.611 | 0.64 | 0.594 | 0.642 | 0.42 | 0.279 | 0.304 | 0.272 | 0.934 | 0.975 | 0.884 | 0.606 | 1.31 | 1.05 | 1.1 | 0.996
NCI-H2023 | 0.354 | 0.438 | 0.359 | 0.297 | 0.329 | 0.672 | 0.489 | 0.528 | 0.467 | 1.08 | 0.755 | 0.763 | 0.691 | 1.05 | 0.973 | 0.959 | 0.787
NCI-H2085 | 0.552 | 0.985 | 0.66 | – | 0.748 | 0.292 | 0.225 | 0.241 | 0.226 | 0.968 | 0.711 | 0.737 | 0.618 | 1.25 | 1.03 | 1.12 | 0.929
NCI-H2087 | 0.442 | 0.611 | 0.548 | – | 0.327 | 1.27 | 0.621 | 0.804 | 0.617 | 1.08 | 0.997 | 0.892 | 0.632 | 0.968 | 0.869 | 0.877 | 0.728
NCI-H2126 | 0.638 | 0.7 | 0.714 | 0.654 | 0.621 | 0.728 | 0.634 | 0.558 | 0.606 | 0.845 | 0.766 | 0.759 | 0.784 | 0.875 | 0.824 | 0.749 | 0.853
NCI-H2170 | 0.775 | 0.839 | 0.741 | 0.573 | 0.691 | 0.471 | 0.629 | 0.47 | 0.638 | 0.29 | 0.259 | 0.269 | 0.279 | 0.551 | 0.533 | 0.53 | 0.448
NCI-H2228 | 0.607 | 0.563 | 0.54 | 0.272 | 0.164 | 0.587 | 0.495 | 0.458 | 0.304 | 1.28 | 0.879 | 0.835 | 0.765 | 1.14 | 0.809 | 0.707 | 0.587
NCI-H2347 | 0.375 | 0.324 | 0.417 | 0.386 | 0.414 | 0.335 | 0.292 | 0.293 | 0.294 | 0.972 | 0.949 | 0.957 | 0.767 | 0.9 | 0.779 | 0.692 | 0.562
NCI-H2405 | 0.636 | 0.605 | 0.587 | 0.669 | 0.593 | 0.192 | 0.181 | 0.204 | 0.217 | 1.41 | 1.06 | 0.924 | 0.972 | 1.21 | 0.878 | 0.869 | 0.677

Reference: the supplement of paper PMC10307832
